Results as given in patent US6579857B1, “Combination cancer therapy comprising adenosine and deaminase enzyme inhibitors” (Evanston Northwestern Healthcare Research Institute, priority 1999, dated 2003).
Like-named read-outs stand apart in the source and are kept apart here.

Key:
[1] = system: neuronal cell; conditions: dose-dependent; cited from earlier work
[2] = system: two cultured human colon carcinoma cell lines and Chinese hamster ovary (CHO K-I) cells; conditions: cited from earlier work; for toxicity when used alone: deoxycoformycin .001 to 1 μM, 2′-deoxyadenosine 0 to 500 μM
[3] = system: OVCAR3 ovarian cancer cells; test: MTT cell viability assay, OVCAR3; conditions: for viability at 10 µM: Homo sapiens, OVCAR-3, 60 h, read-out: cell viability as a percentage of control
Description: For the experiments MCF7 breast cancer cells and OVCAR3 ovarian cancer cells (both obtained from the American Type Culture Collection (ATCC), Manassas, Va.) were cultured in RPMI 1640 media containing 10% fetal calf serum (Life Technologies, Gaithersburg, Md.). After 24 hours of culturing at 37° C. in 5% CO2, additional medium was added containing either adenosine (final concentration 10 μM), coformycin (final concentration 10 μM), or 10 μM each of adenosine and coformycin. Additional media alone was added to control cultures.
The cells were cultured in these chemotherapeutic media for an additional 60 hours, at which time the viability of the cells were determined using an MTT assay (Celltitre 98 Aqueous 1, Promega, Madison, Wis.).
The OVCAR3 ovarian cancer cell line was cultured as described in Example 1 for 24 hours and then treated with either 5 μM (final concentration) dipyridimole alone; 10 μM adenosine plus 10 μM coformycin alone; or the combination of these two treatments. In a control sample, culture media alone was added. The cultures were grown for an additional 60 hours and then analyzed for cell growth.
The same experiments were repeating using 5 μM (final concentration) 5′-amino-5′-deoxyadenosine alone; 5 μM adenosine plus 10 μM coformycin alone; or the combination of these two treatments.
The procedures described in Example 1 were repeated using the OVCAR 3 ovarian cancer cell line, and using as therapeutic agents 10 μM coformycin in combination with 10 μM of either adenosine, 2-chloroadenosine, 8-chloroadenosine, or 8-chloro-cAMP.

[4] = system: fibroblasts; conditions: cited from earlier work
[5] = system: MCF7 breast cancer cells; test: MTT cell viability assay, MCF7; assay type: cell-based; conditions: Homo sapiens, read-out: cell viability as a percentage of control
Description: (§1) Additional media alone was added to control cultures.

[6] = system: mouse melanoma cells; conditions: cited from earlier work
[7] = system: lymphoid cells; conditions: cited from earlier work
[8] = biological target: T1, adenosine deaminase (ADA) (Homo sapiens, UniProt P00813); conditions: Cha et al. 1975; Agarwal et al. 1977; cited from earlier work
T1 sequence (P00813 1-363): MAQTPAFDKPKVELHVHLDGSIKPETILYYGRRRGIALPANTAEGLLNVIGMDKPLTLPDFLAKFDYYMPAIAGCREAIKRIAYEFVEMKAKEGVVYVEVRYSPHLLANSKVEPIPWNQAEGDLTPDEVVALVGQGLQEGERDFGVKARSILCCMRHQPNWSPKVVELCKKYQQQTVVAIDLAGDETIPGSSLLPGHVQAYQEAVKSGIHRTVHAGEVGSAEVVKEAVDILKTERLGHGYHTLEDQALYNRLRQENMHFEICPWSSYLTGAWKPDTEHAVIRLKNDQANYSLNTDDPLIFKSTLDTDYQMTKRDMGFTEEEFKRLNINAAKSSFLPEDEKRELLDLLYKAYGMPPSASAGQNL

[9] = system: AMPDA; conditions: CF versus dCF; cited from earlier work
[10] = system: cell lines OVCAR 3, OVCAR 5, MCF7, and HT 29; test: Adenosine with CF or dCF, tumor cell toxicity assay (Example 4); assay type: cell-based; conditions: 5 μM adenosine with 5 μM CF or 5 μM dCF; 60 hours
Description: as §1
The procedures described in Example 1 were repeated using cell lines OVCAR 3, OVCAR 5, MCF7, and HT 29 and using 5 μM adenosine in combination with either 5 μM CF or 5 μM dCF as the therapeutic combination of agents.

In the case of `Nc1ncnc2c1ncn2[C@H]1C[C@H](O)[C@@H](CO)O1` [2′-deoxyadenosine], the “concentration of maximal neuronal cell toxicity” value [1] is given as 300 µM, the “toxicity when used alone” value [2] is given as “Neither compound was reported to be toxic when used alone” and the “concentration required to approach full cell growth inhibition” value ([2]; in combination with deoxycoformycin) is given as 50 to 150 µM.

With `NC[C@H]1O[C@@H](n2cnc3c(N)ncnc32)[C@H](O)[C@@H]1O` [5′-amino-5′-deoxyadenosine] the “block of toxic effects of Ado/CF combination” value ([3]; OVCAR3, 5 μM 5′-amino-5′-deoxyadenosine + 5 μM adenosine + 10 μM coformycin, 60 hours) was “essentially completely block” and the “cell growth, agent alone” value ([3]; OVCAR3, 5 μM 5′-amino-5′-deoxyadenosine alone, 60 hours) was ~80 % of control.

In the case of `Nc1ncnc2c1ncn2[C@@H]1O[C@H](CO)[C@@H](O)[C@H]1O` [adenosine], the viability at 10 µM [3] is listed as > 100%, the “concentration required for similar (80%) growth inhibition” value [4] is listed as 400 µM and the viability at 10 µM ([5]; MCF7, 10 μM final concentration of each agent, 60 hours) is listed as > 100%. The “concentration giving 80% growth inhibition” value [6] was 50 µM and the “concentration required for similar (80%) growth inhibition” value [7] was 5 µM.

For `OC[C@H]1O[C@@H](n2cnc3c2N=CNC[C@H]3O)[C@H](O)[C@@H]1O` [coformycin], the viability at 10 µM [3] is given as > 100%, the Ki [8] is given as 0.025 nM and the “fold more potent inhibitor of AMPDA” value [9] is given as 50 fold. For the same compound, the viability at 10 µM ([5]; MCF7, 60 h) was > 100% and the “potentiation of adenosine toxicity” value [10] was “consistently potentiated to toxicity of the adenosine to a greater extent than the deoxycoformycin”.

For `OC[C@H]1O[C@@H](n2cnc3c2NC=NC[C@H]3O)C[C@@H]1O` [deoxycoformycin], the “toxicity when used alone” value [2] is given as “Neither compound was reported to be toxic when used alone”.

With `OCCN(CCO)c1nc(N2CCCCC2)c2nc(N(CCO)CCO)nc(N3CCCCC3)c2n1` [dipyridamole] the “cell growth with protective agent added to Ado/CF” value ([3]; OVCAR3, 5 μM dipyridimole + 10 μM adenosine + 10 μM coformycin, 60 hours) was “approximating that of the untreated control” and the “cell growth as percentage of the control” value ([3]; OVCAR3, 5 μM dipyridimole alone or 10 μM adenosine plus 10 μM coformycin alone, 60 hours) was “comparable to the control”.
